Entries after “also recorded” stand apart in the source; their conditions may differ.
Legend:
[1] = tested on: Caucasian participants with nAMD; conditions: cited from earlier work
[2] = tested on: CNV rat model; design: method as in PMID 29201457; conditions: oral administration; cited from earlier work
[3] = tested on: participants with nAMD; experiment: Phase I safety and tolerability of oral vorolanib (adverse events, DLT, MTD); assay type: in vivo; conditions: for Dose-limiting toxicities (DLT): dose escalation
Protocol: This phase I, open-label study consisting of dose escalation and dose expansion was conducted at 6 Chinese sites (NCT02452385 and CTR20150152). This study was approved by the local institutional review board at each participating site and conducted in accordance with the Declaration of Helsinki. All participants provided written informed consent.
The schedule of procedures is shown in Table S1 in the Supplementary Material. In the dose escalation, participants in each group were assigned to receive ascending doses of vorolanib (25, 50, 75 and 100 mg daily). The dose escalated to the next level in the absence of more than two of eight patients with dose-limiting toxicity (DLT), which was defined as a drug-related safety event during the first cycle (30 days) of treatment that was severe enough to require removal of the participant from the study. The maximum tolerated dose (MTD) was defined as the maximum dose at which no more than two of eight DLTs occurred in the group.
AEs were determined by the investigator per the Common Terminology Criteria for Adverse Events version 4.0.

[4] = tested on: human umbilical vein endothelial cells stimulated with rHuVEGF165; design: method as in PMID 33610563; conditions: HUVEC stimulated with rHuVEGF165; cited from earlier work
[5] = tested on: study eyes of participants with nAMD; experiment: Efficacy: change from baseline in BCVA (ETDRS), CST and CNV characteristics; assay type: in vivo, human
Protocol: The efficacy outcomes included changes from baseline in mean BCVA based on ETDRS, central subfield thickness (CST), and CNV characteristics. CST was confirmed by a […] (Heidelberg Engineering, Heidelberg, Germany) at screening, Day 14, and Day 30; then monthly for the next 6 months; and then every 3 months until the end of treatment. FA was performed by a Heidelberg retina tomograph (Heidelberg Engineering) with an Ophthavision Imaging System (MRP Group, Boston, MA) capture station at the screening, Day 90, Day 180, Day 270 and Day 360 visits.
Because this was a phase I study, no power calculation was performed to determine sample size. All participants who had received at least one dose of vorolanib were included in the safety assessment. All participants who completed the course of vorolanib treatment were included for efficacy assessment. All participants who had received at least one dose of vorolanib and who had PK data were included in the PK analysis. Descriptive statistics were used for analyses. For quantitative data, the means ± standard deviations were selected. All statistical analyses were performed with SAS software, v. 9.4 (SAS Institute Inc., Cary, NC, USA).

[6] = tested on: oxygen-induced retinopathy mice; design: method as in PMID 33610563; conditions: cited from earlier work

## Cc1[nH]c(/C=C2\C(=O)Nc3ccc(F)cc32)c(C)c1C(=O)N[C@H]1CCN(C(=O)N(C)C)C1 [vorolanib, Vorolanib]
[1]; 4 of 35 participants, none related to vorolanib
  Participants with ocular AEs: 11.4%
[1]; 4 serious AEs in 3 participants, none attributed to vorolanib
  Participants with serious AEs: 8.6%
[1]; at 24 weeks
  Mean BCVA change: +3.8 letters
[1]
  Deaths or DLTs: no deaths or DLTs
[1]; number of events
  Systemic AEs: 94
[1]; of 94 systemic AEs
  Vorolanib-related systemic AEs: 32
[1]; participants that completed 24 weeks
  Mean reduction in CST: 50 μm
[2]
  CNV lesion area and pathological neovascularization: strongly repressed CNV; also recorded: reduced the CNV lesion area and pathological neovascularization
[3]; 25 mg, N = 16
  TRAE: Elevated ALT: 3 (18.8%) number of participants (%)
  TRAE: Elevated AST: 3 (18.8%) number of participants (%)
  TRAE: Elevated blood pressure: 4 (25.0%) number of participants (%)
  TRAE: Hair colour changes: 0 number of participants (%)
  TRAE: Leucopenia: 1 (6.3%) number of participants (%)
  TRAE: Neutropenia: 1 (6.3%) number of participants (%)
  TRAE: QT interval prolongation: 2 (12.5%) number of participants (%)
  TRAE: Thrombocytopenia: 2 (12.5%) number of participants (%)
[3]; 50 mg, N = 16
  TRAE: Elevated ALT: 9 (56.3%) number of participants (%)
  TRAE: Elevated AST: 8 (50.0%) number of participants (%)
  TRAE: Elevated blood pressure: 6 (37.5%) number of participants (%)
  TRAE: Hair colour changes: 4 (25.0%) number of participants (%)
  TRAE: Leucopenia: 3 (18.8%) number of participants (%)
  TRAE: Neutropenia: 3 (18.8%) number of participants (%)
  TRAE: QT interval prolongation: 4 (25.0%) number of participants (%)
  TRAE: Thrombocytopenia: 1 (6.3%) number of participants (%)
[3]; 75 mg cohort
  Dose-limiting toxicities (DLT): one
[3]; 75 mg, N = 8
  TRAE: Elevated ALT: 5 (62.5%) number of participants (%)
  TRAE: Elevated AST: 4 (50.0%) number of participants (%)
  TRAE: Elevated blood pressure: 3 (37.5%) number of participants (%)
  TRAE: Hair colour changes: 2 (25.0%) number of participants (%)
  TRAE: Leucopenia: 3 (37.5%) number of participants (%)
  TRAE: Neutropenia: 2 (25.0%) number of participants (%)
  TRAE: QT interval prolongation: 1 (12.5%) number of participants (%)
  TRAE: Thrombocytopenia: 3 (37.5%) number of participants (%)
[3]; 100 mg cohort
  Dose-limiting toxicities (DLT): one
[3]; 100 mg, N = 1
  TRAE: Elevated blood pressure: 0 number of participants (%)
  TRAE: Hair colour changes: 0 number of participants (%)
  TRAE: Leucopenia: 0 number of participants (%)
  TRAE: Neutropenia: 0 number of participants (%)
  TRAE: QT interval prolongation: 0 number of participants (%)
  TRAE: Thrombocytopenia: 0 number of participants (%)
[3]; 6 of 41 participants
  Drug-related AEs leading to drug discontinuation: 14.6%
[3]; all cohorts
  Fatal TRAEs: No fatal TRAEs
  Ocular TRAEs: no ocular TRAEs occurred
[3]; all cohorts, N = 41
  Participants with at least one AE: 39 (95.1%) participants (%)
  Participants with grade 3 or higher TRAEs: 12 (29.3%) participants (%)
  Participants with treatment-related adverse events (TRAEs): 33 (80.5%) participants (%)
[3]; all participants
  Elevated alanine aminotransferase (most common nonocular TRAE): 41.5%
[3]; dose escalation 25–100 mg daily
  Dose-limiting toxicities (DLTs), total: two
[3]; oral 25–100 mg daily
  Maximum tolerated dose: not reached
[4]
  Antiangiogenic effects: highly antiangiogenic effects
[5]; 25 mg cohort, N 16
  Mean Change from Baseline to day 180 CST: −11.7 μm
  Mean Change from Baseline to day 360 BCVA: +4.3 letters
  Mean Change from Baseline to day 360 CST: −27.0 μm
[5]; 50 mg cohort, N 16
  Mean Change from Baseline to day 180 CST: −85.0 μm
  Mean Change from Baseline to day 360 BCVA: +8.5 letters
  Mean Change from Baseline to day 360 CST: −54.8 μm
[5]; 75 mg cohort, N 8
  Mean Change from Baseline to day 180 CST: −33.0 μm
  Mean Change from Baseline to day 360 BCVA: +12.0 letters
  Mean Change from Baseline to day 360 CST: −45.5 μm
[5]; 41 participants, baseline to Day 360, range −3.8–0.2
  Mean decrease in CNV area: −0.9 mm^2
[5]; 41 participants, baseline to Day 360, range −4.8–0.5
  Mean decrease in lesion area: −1.3 mm^2
[5]; 41 participants, baseline to Day 360, range −10.8–0.2
  Mean decrease in CNV leakage: −4.0 mm^2
[5]; 75.6% of participants who continued follow-up one month after vorolanib treatment
  Mean BCVA improvement at follow-up after treatment: 2.6 letters
[5]; Day 360
  Participants evaluable at Day 360 who maintained or improved vision: 12 (29.3%) participants (%)
[5]; accompanying decline in CNV leakage
  Reduced CNV area: 37.4%
[5]; all cohorts, N 41
  Mean Change from Baseline to day 180 CST: −48.6 μm
[5]; all cohorts, N 41, range −258–40
  Mean Change from Baseline to day 360 CST: −44.0 μm
[5]; by Day 180, all participants
  Mean reduction in CST: 48.6 μm
[6]
  Retinal neovascularization and avascular area in the retina: markedly inhibited
